Measurements: patent publication US20240342348A1, “MEDICAL DEVICES INCLUDING THERAPEUTIC COATINGS FOR LOCAL DELIVERY OF A DIRECT ANTICOAGULANT” (Boston Scientific Scimed, Inc., priority 2023, published 2024)

How the values were obtained:
[1] = system: PTS; settings: oral; cited from earlier work
[2] = Solubility of crystalline drug in water; assay type: physicochemical
[3] = crystalline drug; cited from earlier work

O=C(NC[C@H]1CN(c2ccc(N3CCOCC3=O)cc2)C(=O)O1)c1ccc(Cl)s1 [rivaroxaban, (S)-5-Chloro-N-((2-oxo-3-(4-(3-oxomorpholino)phenyl)oxazolidin-5-yl)methyl)thiophene-2-carboxamide]
risk of PTS [1]: significantly reduces the risk of PTS
water solubility relative to paclitaxel and everolimus [2]: approximately 10 times
solubility in water [3]: about 3 μg drug per mL water
